The results in this text go back to paper PMC6151428, “Discovery of Novel N-Substituted Prolinamido Indazoles as Potent Rho Kinase Inhibitors and Vasorelaxation Agents” (Molecules : A Journal of Synthetic Chemistry and Natural …, 2017).

The subject of data set [1] is rat aortic rings. As to the kind of experiment: Vasorelaxant activity test, high-potassium model. The settings on record: rat aortic rings constricted with high K+ (60 mmol/L); a: mean N = 6; b: single determination; -- = No activity. The text has this: (§1) Abnormalities in the Rho/ROCK signaling pathway are associated with various cardiovascular diseases, especially hypertension. The inhibition of the Rho/ROCK pathway can cause the vessels to relax. The norepinephrine (NE)- or potassium chloride (KCl)-induced model of the rat aortic ring can trigger sustained vessel contraction and is usually used to evaluate vasorelaxant activity. DL0805 has shown vasorelaxant activity. Therefore, the nine compounds with significant inhibition against ROCK I were further tested for their vasorelaxant activity in rat aortic rings in both the high-potassium and NE models (Table 3). […] The potent active compound 4b with excellent activity has been further evaluated, and further pharmacokinetic and safety evaluations are in progress.
(§2) Male Sprague-Dawley rats weighing 240–280 g (Vital River Laboratories, Beijing, China) were maintained in a 12-h light/dark cycle at 24 °C in a relative humidity of 60% room, and received food and water ad libitum. The animal care and handling were performed in accordance with the Guide for the Care and Use of Laboratory Animals published by the US National Institutes of Health and the Laboratories Institutional Animal Care and Use Committee of the Chinese Academy of Medical Science and Peking Union Medical College (ethic approval number: 00001012).
(§3) The vasorelaxant activity assay was performed as described previously. Briefly, the descending thoracic aorta was isolated after rats were euthanized by cervical dislocation. Then, the aorta was cut into ring segments (3–4 mm in length). The endothelial layer of the aorta was destroyed by gently rubbing the luminal surface with a moist cotton swab when necessary. Two stainless-steel triangles were inserted into the lumen of each ring. One triangle was fixed, and the other attached to a force transducer. Changes in isometric force were recorded on a BIOPAC polygraph (MP100WSW, Biopac Systems, Inc, Goleta, CA, USA). The rings were mounted in organ baths containing 10 mL Krebs-Henseleit (K-H) buffer with the following composition (mM): NaCl 120, KCl 4.8, MgSO4 1.4, KH2PO4 1.2, glucose 11.0, CaCl2 2.5, NaHCO3 25.0 and EDTA 0.01. The K-H buffer was continuously bubbled with 95% O2/5% CO2 at 37 °C. Rings were allowed to equilibrate for 60 min at a resting tension of 1.2 g with changes of buffer every 20 min.
(§4) After the equilibration period, the aortic rings were constricted with a high K^+ (60 mM) K-H solution to stimulate the tissue and to test its availability. Then, the rings were washed with normal K-H buffer to restore the basic tension of 1.2 g. The aortic rings were then stimulated with a high K^+ (60 mmol/L) K-H buffer ornorepinephrine (1 μM) to evaluate the vasorelaxant effects of the compounds. When the contraction reached the platform, compounds were added to the bath in batches at 5-min intervals to reach the accumulative concentrations of 1, 2, 5, 10, 25 and 50 μM. The tension of vessels was recorded and nonlinear regression was used to calculate the EC50 values.

In data set [2] the test system is rat aortic rings. As to the kind of experiment: Vasorelaxant activity test, NE model. The settings on record: rat aortic rings constricted with norepinephrine (1 μM); a: mean N = 6; b: single determination; -- = No activity.
Excerpt: as §1, §2, §3, §4

Data set [3] deals with T1, ROCK I (Homo sapiens, UniProt Q13464).
T1 construct: purchased Cyclex, Nagoya, Japan CY-1160
T1 sequence (Q13464 whole entry, species assumed): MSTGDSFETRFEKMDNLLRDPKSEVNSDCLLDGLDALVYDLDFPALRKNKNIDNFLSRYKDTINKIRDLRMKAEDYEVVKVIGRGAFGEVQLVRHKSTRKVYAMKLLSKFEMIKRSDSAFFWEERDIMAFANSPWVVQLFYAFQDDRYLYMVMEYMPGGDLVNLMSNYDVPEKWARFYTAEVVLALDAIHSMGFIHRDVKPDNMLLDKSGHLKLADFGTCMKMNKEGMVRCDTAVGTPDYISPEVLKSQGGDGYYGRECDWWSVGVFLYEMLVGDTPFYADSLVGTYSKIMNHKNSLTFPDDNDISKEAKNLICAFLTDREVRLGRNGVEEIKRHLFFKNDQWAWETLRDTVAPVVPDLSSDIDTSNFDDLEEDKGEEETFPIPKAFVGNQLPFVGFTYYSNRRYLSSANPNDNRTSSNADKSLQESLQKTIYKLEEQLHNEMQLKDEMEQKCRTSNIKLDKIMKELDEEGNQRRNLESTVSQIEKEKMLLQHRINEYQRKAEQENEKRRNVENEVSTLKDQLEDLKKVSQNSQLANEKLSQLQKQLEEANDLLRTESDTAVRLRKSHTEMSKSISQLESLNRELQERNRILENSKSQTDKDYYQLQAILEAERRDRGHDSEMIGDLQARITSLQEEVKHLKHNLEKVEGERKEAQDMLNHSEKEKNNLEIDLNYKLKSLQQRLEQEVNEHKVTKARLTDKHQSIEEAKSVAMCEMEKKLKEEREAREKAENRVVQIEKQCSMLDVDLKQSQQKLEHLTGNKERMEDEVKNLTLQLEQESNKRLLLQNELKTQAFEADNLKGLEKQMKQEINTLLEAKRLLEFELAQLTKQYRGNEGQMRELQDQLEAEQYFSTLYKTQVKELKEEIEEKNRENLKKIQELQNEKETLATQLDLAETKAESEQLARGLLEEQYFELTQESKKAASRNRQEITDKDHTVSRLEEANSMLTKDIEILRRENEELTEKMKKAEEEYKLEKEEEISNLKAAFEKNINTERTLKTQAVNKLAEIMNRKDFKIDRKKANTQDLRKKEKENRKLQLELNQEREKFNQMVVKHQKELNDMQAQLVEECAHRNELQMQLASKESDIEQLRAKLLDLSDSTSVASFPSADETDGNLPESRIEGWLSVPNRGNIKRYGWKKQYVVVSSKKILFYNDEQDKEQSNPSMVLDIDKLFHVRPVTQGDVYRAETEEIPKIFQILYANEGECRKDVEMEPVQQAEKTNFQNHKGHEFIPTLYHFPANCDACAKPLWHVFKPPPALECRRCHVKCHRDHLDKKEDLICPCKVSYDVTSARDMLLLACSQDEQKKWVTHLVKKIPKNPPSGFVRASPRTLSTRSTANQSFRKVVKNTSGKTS
As to the kind of experiment: Rho kinase activity assay (Cyclex CY-1160 kit). The data set is classed as biochemical. The settings on record: for IC50: a: means of multiple experiments (N = 4), errors within 30% of the mean, b: single determinations, read-out: IC50 against ROCK I; for ROCK I activity compared in words: comparison with DL0805 or between series. As for the experimental part: Briefly, the compounds at 20 μM were pre-incubated in a system wherein ROCK I (0.02 ng/μL) phosphorylates the kinase substrate’s myosin-binding subunit (MBS) pre-absorbed onto the microplate in the presence of Mg^2+ and ATP. Then, the system was washed after incubation at 30 °C for 30 min. 100 μL of horseradish peroxidase-conjugated anti-AF20 antibody was added to the wells and then incubated for 30 min at room temperature. The reaction system was then incubated with the substrate tetra-methylbenzidine (TMB), which can be catalyzed from a colorless solution to a blue solution. The absorbance was measured at a wavelength of 450 nm on a microplate reader. The color reflects the relative level of ROCK I activity. The inhibitory rates of the compounds on ROCK I were obtained from OD 450 nm and the IC50 values were calculated by nonlinear regression.

The mark [4] stands for this setting: compound concentration 20 μM, single determinations.

Some results are limits rather than exact numbers.

The term melting point denotes the temperature, or range, at which the solid turns liquid. One may read the EC50 as the concentration needed to bring the measured effect to its halfway point. Low values mean higher potency in that assay, high ones lower potency in that assay. Broadly, the IC50 is the concentration that gives 50% inhibition. The term inhibition denotes the relative decrease from the control value, in per cent. Lower therefore signals a weak effect. Consider `O=C(Nc1ccc2[nH]ncc2c1)C1CCN(Cc2ccc(F)cc2)C1` (centres unmarked) [Compound 4g, 1-(4-Fluorobenzyl)-N-(1H-indazol-5-yl)pyrrolidine-3-carboxamide], for which the melting point was 202 to 203 °C. For the same compound, in data set [1], the EC50 is 19.5 µM. For the same compound, in data set [2], the EC50 was determined as 8.91 µM. In data set [3], the 50% inhibitory concentration (IC50) was found to be 1.41 µM and the “ROCK I activity compared in words” value is reported as “activity profiles superior to DL0805”. This compound also yielded an inhibition at 20 µM in data set [3] (setting [4]) of 63.8%.
`O=C(Nc1ccc2cn[nH]c2c1)[C@@H]1CCCN1Cc1ccccc1` [Compound 3c, (S)-1-Benzyl-N-(1H-indazol-6-yl)pyrrolidine-2-carboxamide] registered a melting point of 195 to 197 °C. This compound also gave an inhibition at 20 µM in data set [3] (setting [4]) of 23.7%.
In turn, `Cc1ccc(CN2CCC[C@H]2C(=O)Nc2ccc3[nH]ncc3c2)cc1` [Compound 2f, (S)-N-(1H-Indazol-5-yl)-1-(4-methylbenzyl)pyrrolidine-2-carboxamide] came in with a melting point of 204 to 206 °C. Also, the inhibition at 20 µM in data set [3] (setting [4]) was 21.3%.
Taken in the same sequence, the figures for `O=C(Nc1ccc2[nH]ncc2c1)C1CCN(C(=O)c2ccc(Br)cc2)C1` (centres unmarked) [Compound 5d, 1-(4-Bromobenzoyl)-N-(1H-indazol-5-yl)pyrrolidine-3-carboxamide] were 250 to 251 °C and 27.9%.
For the compound `O=C(Nc1ccc2cn[nH]c2c1)C1CCCN1Cc1ccccc1` (centres unmarked) [Compound 3a, 1-Benzyl-N-(1H-indazol-6-yl)pyrrolidine-2-carboxamide], the melting point lay within 195 to 196 °C. In data set [3] (setting [4]), this compound returned an inhibition at 20 µM of 16%.
`O=C(Nc1ccc2[nH]ncc2c1)[C@H]1CCCN1Cc1ccccc1` [Compound 2b, (R)-1-Benzyl-N-(1H-indazol-5-yl)pyrrolidine-2-carboxamide] gave a melting point of 199 to 201 °C. Further, the inhibition at 20 µM in data set [3] (setting [4]) is 24.3%.
Compound `O=C(Nc1ccc2[nH]ncc2c1)C1CCN(C(=O)c2ccc(Cl)cc2)C1` (centres unmarked) [Compound 5f, 1-(4-Chlorobenzoyl)-N-(1H-indazol-5-yl)pyrrolidine-3-carboxamide] returned a melting point of 225 to 227 °C. The same compound showed a concentration for a half-maximal effect (EC50) in data set [1] above 50 µM. Further, the EC50 in data set [2] is above 50 µM. Also, the IC50 in data set [3] worked out at 7.26 µM. For the same compound, in data set [3] (setting [4]), the inhibition at 20 µM turned out to be 55.2%.
For `O=C(Nc1ccc2[nH]ncc2c1)C1CCN(C(=O)c2ccccc2)C1` (centres unmarked) [Compound 5a, 1-Benzoyl-N-(1H-indazol-5-yl)pyrrolidine-3-carboxamide], the melting point is 211 to 213 °C. In addition, the inhibition at 20 µM in data set [3] (setting [4]) is 42.5%.
Consider “N-(1H-Indazol-5-yl)-1-(4-methoxybenzyl)pyrrolidine-3-carboxamide [Compound 4e]”, for which, in data set [3] (setting [4]), the “% Inhibition of ROCK I” value was 44.7%.
Turning to `O=C(Nc1ccc2[nH]ncc2c1)C1CCCN1Cc1ccccc1` (centres unmarked) [Compound 2a, 1-Benzyl-N-(1H-indazol-5-yl)pyrrolidine-2-carboxamide], the melting point lay within 200 to 201 °C. In data set [3] (setting [4]), this compound came in with an inhibition at 20 µM of 27.2%.
For `O=C(Nc1ccc2[nH]ncc2c1)[C@@H]1CCCN1Cc1ccccc1` [Compound 2c, (S)-1-Benzyl-N-(1H-indazol-5-yl)pyrrolidine-2-carboxamide], in that order: 202 to 203 °C and 24.6%.
As to `COc1ccc(C(=O)N2CCC(C(=O)Nc3ccc4[nH]ncc4c3)C2)cc1` (centres unmarked) [Compound 5c, N-(1H-Indazol-5-yl)-1-(4-methoxybenzoyl)pyrrolidine-3-carboxamide], the melting point was in the range of 242 to 244 °C. Moreover, in data set [3] (setting [4]), the inhibition at 20 µM came to 19.1%.
`O=C(Nc1ccc2[nH]ncc2c1)[C@@H]1CCN(Cc2ccccc2)C1` [Compound 4i, (R)-1-Benzyl-N-(1H-indazol-5-yl)pyrrolidine-3-carboxamide]: the melting point lay in the range of 203 to 204 °C. The compound also registered an EC50 in data set [1] of 6.02 µM. In data set [2], this compound came in with an EC50 of 11.5 µM. For the same compound, in data set [3], the 50% inhibitory concentration (IC50) is 7.32 µM. In addition, in data set [3] (setting [4]), the inhibition at 20 µM amounted to 73.9%.
For `Cc1ccc(C(=O)N2CCC(C(=O)Nc3ccc4[nH]ncc4c3)C2)cc1` (centres unmarked) [Compound 5b, N-(1H-Indazol-5-yl)-1-(4-methylbenzoyl)pyrrolidine-3-carboxamide], in that order: 224 to 226 °C, 60.6 µM, 15.6 µM, 11.5 µM and 54.9%.
In turn, `O=C(Nc1ccc2cn[nH]c2c1)[C@H]1CCCN1Cc1ccccc1` [Compound 3b, (R)-1-Benzyl-N-(1H-indazol-6-yl)pyrrolidine-2-carboxamide] yielded a melting point of 192 to 193 °C. At 20 µM the inhibition in data set [3] (setting [4]) was 15%.
As to `O=C(Nc1ccc2[nH]ncc2c1)C1CCN(Cc2ccc(Br)cc2)C1` (centres unmarked) [Compound 4d, 1-(4-Bromobenzyl)-N-(1H-indazol-5-yl)pyrrolidine-3-carboxamide], the melting point lay in the range of 235 to 236 °C. Also, the EC50 in data set [1] came to 58.1 µM. In data set [2], this compound gave an EC50 of 46.8 µM. Further, in data set [3], the IC50 amounted to 0.51 µM and the “ROCK I activity compared in words” value was “activity profiles superior to DL0805”. The compound also returned an inhibition at 20 µM in data set [3] (setting [4]) of 62.5%.
For the compound `O=S(=O)(c1cccc2cnccc12)N1CCCNCC1` [fasudil, reference compound], the EC50 in data set [1] was determined as 5.47 µM; in data set [2], 4.65 µM.
In turn, `Cc1ccc(CN2CCC[C@@H]2C(=O)Nc2ccc3[nH]ncc3c2)cc1` [Compound 2e, (R)-N-(1H-Indazol-5-yl)-1-(4-methylbenzyl)pyrrolidine-2-carboxamide] yielded a melting point of 203 to 205 °C.
For the compound `O=C(Nc1ccc2[nH]ncc2c1)C1CCN(C(=O)c2ccc([N+](=O)[O-])cc2)C1` (centres unmarked) [Compound 5e, N-(1H-Indazol-5-yl)-1-(4-nitrobenzoyl)pyrrolidine-3-carboxamide], the melting point lay in the range of 177 to 178 °C. In data set [3] (setting [4]), the inhibition at 20 µM came out at 45.4%.
Turning to `Cc1ccc(CN2CCCC2C(=O)Nc2ccc3[nH]ncc3c2)cc1` (centres unmarked) [Compound 2d, N-(1H-Indazol-5-yl)-1-(4-methylbenzyl)pyrrolidine-2-carboxamide], the melting point lay within 200 to 202 °C. Also, at 20 µM the inhibition in data set [3] (setting [4]) was 26.6%.
For the compound `O=C(Nc1ccc2[nH]ncc2c1)[C@H]1CCN(Cc2ccccc2)C1` [Compound 4h, (S)-1-Benzyl-N-(1H-indazol-5-yl)pyrrolidine-3-carboxamide], the melting point was in the range of 203 to 204 °C. The EC50 in data set [1] came out at 32.4 µM. This compound also registered an EC50 in data set [2] above 50 µM. Also, in data set [3], the half-maximal inhibitory concentration (IC50) was 0.42 µM and the “ROCK I activity compared in words” value is reported as “activity profiles superior to DL0805”. Also, testing at 20 µM in data set [3] (setting [4]) gave an inhibition of 54.8%.
Regarding `N#Cc1ccc(CN2CCC(C(=O)Nc3ccc4[nH]ncc4c3)C2)cc1` (centres unmarked) [Compound 4f, 1-(4-Cyanobenzyl)-N-(1H-indazol-5-yl)pyrrolidine-3-carboxamide], the melting point lay within 202 to 204 °C. Besides, in data set [3] (setting [4]), 20 µM produced 24.5% inhibition.
In turn, `COc1ccc(CN2CCC(C(=O)Nc3ccc4[nH]ncc4c3)C2)cc1` (centres unmarked) [Compound 4c, N-(1H-Indazol-5-yl)-1-(4-methoxybenzyl)pyrrolidine-3-carboxamide] gave an EC50 in data set [1] of 5.8 µM. This compound gave a concentration giving a half-maximal response (EC50) in data set [2] of 5.57 µM. In addition, in data set [3], the 50% inhibitory concentration (IC50) was determined as 1.86 µM and the “ROCK I activity compared in words” value is “activity profiles superior to DL0805”. The inhibition at 20 µM in data set [3] (setting [4]) worked out at 53.3%.
